The supplement of paper PMC10307832

Experiments:
Assay in all cases: relative viability (nuclei count vs DMSO), 5 days (fraction); higher = more cells survive
HARA = system: HARA
How it was run: (§1)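 Each reported value is a median over duplicate plates. It expresses relative viability: treated-well nuclei count divided by vehicle-well nuclei count. Lung cancer cell lines in 1536-well plates were dosed by pin tool a day after seeding, alone with one drug or with a fixed anchor-drug dose plus five library-drug doses (not always all listed) in √10 steps, and nuclei were counted after 5 days.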

UMC-11 = system: UMC-11
How it was run: as §1

NCI-H838 = system: NCI-H838
How it was run: as §1

COR-L23 = system: COR-L23
How it was run: as §1

NCI-H647 = system: NCI-H647
How it was run: as §1

NCI-H1993 = system: NCI-H1993
How it was run: as §1

COR-L 105 = system: COR-L 105
How it was run: as §1

NCI-H2009 = system: NCI-H2009
How it was run: as §1

NCI-H2347 = system: NCI-H2347
How it was run: as §1

EKVX = system: EKVX
How it was run: as §1

NCI-H2228 = system: NCI-H2228
How it was run: as §1

NCI-H322M = system: NCI-H322M
How it was run: as §1

PC-14 = system: PC-14
How it was run: as §1

HOP-62 = system: HOP-62
How it was run: as §1

NCI-H1355 = system: NCI-H1355
How it was run: as §1

NCI-H1755 = system: NCI-H1755
How it was run: as §1

NCI-H1734 = system: NCI-H1734
How it was run: as §1

**Q.** For `Clc1ccc(Nc2nnc(Cc3ccncc3)c3ccccc23)cc1` [Vatalanib] + CC(C)C[C@H](NC(=O)[C@H](Cc1ccccc1)NC(=O)c1cnccn1)B(O)O [Bortezomib] (partner 0.002 µM), which relative viability (HARA; first compound 0.04 µM) is on record?
**A.** Its relative viability is 0.71.

**Q.** What about the relative viability (HARA; first compound 0.1265 µM) of the same molecule?
**A.** The relative viability was 0.953.

**Q.** What about the relative viability (HARA; first compound 0.4 µM) of the same molecule?
**A.** The relative viability was 1.23.

**Q.** And the relative viability (HARA; first compound 1.265 µM)?
**A.** The relative viability was 1.12.

**Q.** And the relative viability (HARA; first compound 4 µM)?
**A.** The relative viability was 1.06.

**Q.** What about the relative viability (UMC-11; first compound 0.04 µM) of the same molecule?
**A.** The relative viability was 0.802.

**Q.** And the relative viability (UMC-11; first compound 0.1265 µM)?
**A.** The relative viability was 0.771.

**Q.** And the relative viability (UMC-11; first compound 0.4 µM)?
**A.** The relative viability was 0.709.

**Q.** And the relative viability (UMC-11; first compound 1.265 µM)?
**A.** Its relative viability is 0.717.

**Q.** And the relative viability (UMC-11; first compound 4 µM)?
**A.** The relative viability was 0.688.

**Q.** What about the relative viability (NCI-H838; first compound 0.04 µM) of the same molecule?
**A.** The relative viability was 0.973.

**Q.** What about the relative viability (NCI-H838; first compound 0.1265 µM) of the same molecule?
**A.** Its relative viability is 0.99.

**Q.** And the relative viability (NCI-H838; first compound 0.4 µM)?
**A.** The relative viability was 0.805.

**Q.** And the relative viability (NCI-H838; first compound 1.265 µM)?
**A.** Its relative viability is 0.68.

**Q.** What about the relative viability (NCI-H838; first compound 4 µM) of the same molecule?
**A.** Its relative viability is 0.798.

**Q.** And the relative viability (COR-L23; first compound 0.04 µM)?
**A.** The relative viability was 1.1.

**Q.** What about the relative viability (COR-L23; first compound 0.1265 µM) of the same molecule?
**A.** Its relative viability is 0.934.

**Q.** What about the relative viability (COR-L23; first compound 0.4 µM) of the same molecule?
**A.** The relative viability was 1.01.

**Q.** And the relative viability (COR-L23; first compound 1.265 µM)?
**A.** The relative viability was 1.01.

**Q.** And the relative viability (COR-L23; first compound 4 µM)?
**A.** Its relative viability is 0.942.

**Q.** And the relative viability (NCI-H647; first compound 0.04 µM)?
**A.** The relative viability was 1.05.

**Q.** And the relative viability (NCI-H647; first compound 0.1265 µM)?
**A.** Its relative viability is 0.971.

**Q.** And the relative viability (NCI-H647; first compound 0.4 µM)?
**A.** Its relative viability is 1.07.

**Q.** What about the relative viability (NCI-H647; first compound 1.265 µM) of the same molecule?
**A.** The relative viability was 0.943.

**Q.** What about the relative viability (NCI-H647; first compound 4 µM) of the same molecule?
**A.** The relative viability was 1.06.

**Q.** What about the relative viability (NCI-H1993; first compound 0.04 µM) of the same molecule?
**A.** The relative viability was 1.11.

**Q.** What about the relative viability (NCI-H1993; first compound 0.1265 µM) of the same molecule?
**A.** Its relative viability is 1.05.

**Q.** And the relative viability (NCI-H1993; first compound 0.4 µM)?
**A.** The relative viability was 1.02.

**Q.** What about the relative viability (NCI-H1993; first compound 1.265 µM) of the same molecule?
**A.** Its relative viability is 1.01.

**Q.** And the relative viability (NCI-H1993; first compound 4 µM)?
**A.** The relative viability was 0.869.

**Q.** And the relative viability (COR-L 105; first compound 0.04 µM)?
**A.** The relative viability was 0.941.

**Q.** What about the relative viability (COR-L 105; first compound 0.1265 µM) of the same molecule?
**A.** Its relative viability is 0.783.

**Q.** What about the relative viability (COR-L 105; first compound 0.4 µM) of the same molecule?
**A.** Its relative viability is 0.931.

**Q.** What about the relative viability (COR-L 105; first compound 1.265 µM) of the same molecule?
**A.** Its relative viability is 0.713.

**Q.** What about the relative viability (COR-L 105; first compound 4 µM) of the same molecule?
**A.** The relative viability was 0.651.

**Q.** And the relative viability (NCI-H2009; first compound 0.04 µM)?
**A.** Its relative viability is 1.19.

**Q.** What about the relative viability (NCI-H2009; first compound 0.1265 µM) of the same molecule?
**A.** Its relative viability is 0.891.

**Q.** And the relative viability (NCI-H2009; first compound 0.4 µM)?
**A.** The relative viability was 1.14.

**Q.** And the relative viability (NCI-H2009; first compound 1.265 µM)?
**A.** The relative viability was 0.949.

**Q.** And the relative viability (NCI-H2009; first compound 4 µM)?
**A.** Its relative viability is 0.984.

**Q.** What about the relative viability (NCI-H2347; first compound 0.1265 µM) of the same molecule?
**A.** Its relative viability is 0.898.

**Q.** What about the relative viability (NCI-H2347; first compound 0.4 µM) of the same molecule?
**A.** The relative viability was 0.855.

**Q.** What about the relative viability (NCI-H2347; first compound 1.265 µM) of the same molecule?
**A.** Its relative viability is 0.973.

**Q.** What about the relative viability (NCI-H2347; first compound 4 µM) of the same molecule?
**A.** The relative viability was 0.865.

**Q.** What about the relative viability (EKVX; first compound 0.04 µM) of the same molecule?
**A.** Its relative viability is 1.1.

**Q.** What about the relative viability (EKVX; first compound 0.1265 µM) of the same molecule?
**A.** Its relative viability is 0.647.

**Q.** What about the relative viability (EKVX; first compound 0.4 µM) of the same molecule?
**A.** The relative viability was 1.22.

**Q.** What about the relative viability (EKVX; first compound 1.265 µM) of the same molecule?
**A.** Its relative viability is 0.984.

**Q.** And the relative viability (EKVX; first compound 4 µM)?
**A.** The relative viability was 0.848.

**Q.** What about the relative viability (NCI-H2228; first compound 0.04 µM) of the same molecule?
**A.** Its relative viability is 0.865.

**Q.** And the relative viability (NCI-H2228; first compound 0.1265 µM)?
**A.** Its relative viability is 0.803.

**Q.** What about the relative viability (NCI-H2228; first compound 0.4 µM) of the same molecule?
**A.** Its relative viability is 0.94.

**Q.** What about the relative viability (NCI-H2228; first compound 1.265 µM) of the same molecule?
**A.** Its relative viability is 0.951.

**Q.** What about the relative viability (NCI-H2228; first compound 4 µM) of the same molecule?
**A.** The relative viability was 1.11.

**Q.** And the relative viability (NCI-H322M; first compound 0.04 µM)?
**A.** The relative viability was 1.19.

**Q.** And the relative viability (NCI-H322M; first compound 0.1265 µM)?
**A.** The relative viability was 1.31.

**Q.** What about the relative viability (NCI-H322M; first compound 0.4 µM) of the same molecule?
**A.** Its relative viability is 1.33.

**Q.** What about the relative viability (NCI-H322M; first compound 1.265 µM) of the same molecule?
**A.** The relative viability was 1.28.

**Q.** What about the relative viability (NCI-H322M; first compound 4 µM) of the same molecule?
**A.** Its relative viability is 1.08.

**Q.** And the relative viability (PC-14; first compound 0.04 µM)?
**A.** Its relative viability is 1.02.

**Q.** What about the relative viability (PC-14; first compound 0.1265 µM) of the same molecule?
**A.** Its relative viability is 0.849.

**Q.** What about the relative viability (PC-14; first compound 0.4 µM) of the same molecule?
**A.** The relative viability was 0.969.

**Q.** What about the relative viability (PC-14; first compound 1.265 µM) of the same molecule?
**A.** The relative viability was 0.852.

**Q.** And the relative viability (PC-14; first compound 4 µM)?
**A.** Its relative viability is 0.828.

**Q.** What about the relative viability (HOP-62; first compound 0.04 µM) of the same molecule?
**A.** Its relative viability is 0.977.

**Q.** What about the relative viability (HOP-62; first compound 0.4 µM) of the same molecule?
**A.** Its relative viability is 0.857.

**Q.** And the relative viability (HOP-62; first compound 1.265 µM)?
**A.** Its relative viability is 0.849.

**Q.** What about the relative viability (HOP-62; first compound 4 µM) of the same molecule?
**A.** The relative viability was 1.09.

**Q.** And the relative viability (NCI-H1355; first compound 0.04 µM)?
**A.** Its relative viability is 1.18.

**Q.** What about the relative viability (NCI-H1355; first compound 0.1265 µM) of the same molecule?
**A.** The relative viability was 1.22.

**Q.** And the relative viability (NCI-H1355; first compound 0.4 µM)?
**A.** Its relative viability is 1.21.

**Q.** What about the relative viability (NCI-H1355; first compound 1.265 µM) of the same molecule?
**A.** Its relative viability is 1.09.

**Q.** And the relative viability (NCI-H1355; first compound 4 µM)?
**A.** Its relative viability is 1.1.

**Q.** What about the relative viability (NCI-H1755; first compound 0.04 µM) of the same molecule?
**A.** The relative viability was 0.938.

**Q.** What about the relative viability (NCI-H1755; first compound 0.1265 µM) of the same molecule?
**A.** The relative viability was 0.926.

**Q.** What about the relative viability (NCI-H1755; first compound 0.4 µM) of the same molecule?
**A.** The relative viability was 0.992.

**Q.** And the relative viability (NCI-H1755; first compound 1.265 µM)?
**A.** Its relative viability is 0.88.

**Q.** What about the relative viability (NCI-H1755; first compound 4 µM) of the same molecule?
**A.** Its relative viability is 0.974.

**Q.** And the relative viability (NCI-H1734; first compound 0.04 µM)?
**A.** Its relative viability is 1.02.

**Q.** What about the relative viability (NCI-H1734; first compound 0.1265 µM) of the same molecule?
**A.** The relative viability was 1.04.

**Q.** What about the relative viability (NCI-H1734; first compound 0.4 µM) of the same molecule?
**A.** The relative viability was 1.15.

**Q.** What about the relative viability (NCI-H1734; first compound 1.265 µM) of the same molecule?
**A.** The relative viability was 0.827.

**Q.** And the relative viability (NCI-H1734; first compound 4 µM)?
**A.** Its relative viability is 0.893.
